Laboratory results taken from ChEMBL document CHEMBL1201862, “PubChem BioAssay data set” (2004).
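1) Cells in 96-well plates. 2) Compound, 48 h, 5 concentrations. 3) Linear interpolation between surrounding doses. 4) Unreached endpoint = highest concentration. GI50: concentration for 50% inhibition of growth.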 Calls of active or inactive are those of the source. Cut-off read from the data, not from the text of the source: active = GI50 up to about 1.1 µM and inactive = higher.

Experiments:
Assay in all cases: NCI-60 cell line screen, 48 h
A549 = test system: A549
LOX IMVI = test system: LOX IMVI
OVCAR-5 = test system: OVCAR-5
EKVX = test system: EKVX
MDA-MB-231 = test system: MDA-MB-231
NCI/ADR-RES = test system: NCI/ADR-RES
BT-549 = test system: BT-549
RXF 393 = test system: RXF 393
SK-MEL-2 = test system: SK-MEL-2
HT-29 = test system: HT-29
M14 = test system: M14
NCI-H23 = test system: NCI-H23
UACC-257 = test system: UACC-257
SF-295 = test system: SF-295
SN12C = test system: SN12C
A498 = test system: A498
RPMI-8226 = test system: RPMI-8226
PC-3 = test system: PC-3
OVCAR-3 = test system: OVCAR-3
K562 = test system: K562
786-0 = test system: 786-0
UACC-62 = test system: UACC-62
HCT-116 = test system: HCT-116
U-251 = test system: U-251
IGROV-1 = test system: IGROV-1
MDA-MB-435 = test system: MDA-MB-435
SK-MEL-28 = test system: SK-MEL-28
MOLT-4 = test system: MOLT-4
SK-MEL-5 = test system: SK-MEL-5
OVCAR-4 = test system: OVCAR-4
SR = test system: SR
NCI-H226 = test system: NCI-H226
COLO 205 = test system: COLO 205
HOP-92 = test system: HOP-92
DU-145 = test system: DU-145
NCI-H522 = test system: NCI-H522
CCRF-CEM = test system: CCRF-CEM
SNB-75 = test system: SNB-75
SF-539 = test system: SF-539
UO-31 = test system: UO-31
ACHN = test system: ACHN
HCC 2998 = test system: HCC 2998
HOP-62 = test system: HOP-62
OVCAR-8 = test system: OVCAR-8
CAKI-1 = test system: CAKI-1
NCI-H460 = test system: NCI-H460
HL-60 = test system: HL-60
MCF7 = test system: MCF7
Malme-3M = test system: Malme-3M
SNB-19 = test system: SNB-19
MDA-N = test system: MDA-N
SW-620 = test system: SW-620
KM12 = test system: KM12
HCT-15 = test system: HCT-15
Hs-578T = test system: Hs-578T
SK-OV-3 = test system: SK-OV-3
SF-268 = test system: SF-268
TK-10 = test system: TK-10

CC1(C)CC(=O)c2c(N)n[nH]c2C1
GI50 (A549): > 100 µM (inactive) | GI50 (LOX IMVI): > 100 µM (inactive) | GI50 (OVCAR-5): > 100 µM (inactive) | GI50 (EKVX): > 100 µM (inactive) | GI50 (MDA-MB-231): > 100 µM (inactive) | GI50 (NCI/ADR-RES): > 100 µM (inactive) | GI50 (BT-549): > 100 µM (inactive) | GI50 (RXF 393): > 100 µM (inactive) | GI50 (SK-MEL-2): > 100 µM (inactive) | GI50 (HT-29): > 100 µM (inactive) | GI50 (M14): > 100 µM (inactive) | GI50 (NCI-H23): > 100 µM (inactive) | GI50 (UACC-257): > 100 µM (inactive) | GI50 (SF-295): > 100 µM (inactive) | GI50 (SN12C): > 100 µM (inactive) | GI50 (A498): > 100 µM (inactive) | GI50 (RPMI-8226): > 100 µM (inactive) | GI50 (PC-3): > 100 µM (inactive) | GI50 (OVCAR-3): > 100 µM (inactive) | GI50 (K562): > 100 µM (inactive) | GI50 (786-0): > 100 µM (inactive) | GI50 (UACC-62): > 100 µM (inactive) | GI50 (HCT-116): > 100 µM (inactive) | GI50 (U-251): > 100 µM (inactive) | GI50 (IGROV-1): > 100 µM (inactive) | GI50 (MDA-MB-435): > 100 µM (inactive) | GI50 (SK-MEL-28): > 100 µM (inactive) | GI50 (MOLT-4): > 100 µM (inactive) | GI50 (SK-MEL-5): > 100 µM (inactive) | GI50 (OVCAR-4): > 100 µM (inactive) | GI50 (SR): > 100 µM (inactive) | GI50 (NCI-H226): > 100 µM (inactive) | GI50 (COLO 205): > 100 µM (inactive) | GI50 (HOP-92): > 100 µM (inactive) | GI50 (DU-145): > 100 µM (inactive) | GI50 (NCI-H522): > 100 µM (inactive) | GI50 (CCRF-CEM): > 100 µM (inactive) | GI50 (SNB-75): > 100 µM (inactive) | GI50 (SF-539): > 100 µM (inactive) | GI50 (UO-31): > 100 µM (inactive) | GI50 (ACHN): > 100 µM (inactive) | GI50 (HCC 2998): > 100 µM (inactive) | GI50 (HOP-62): > 100 µM (inactive) | GI50 (OVCAR-8): > 100 µM (inactive) | GI50 (CAKI-1): > 100 µM (inactive) | GI50 (NCI-H460): > 100 µM (inactive) | GI50 (HL-60): > 100 µM (inactive) | GI50 (MCF7): > 100 µM (inactive) | GI50 (Malme-3M): > 100 µM (inactive) | GI50 (SNB-19): > 100 µM (inactive) | GI50 (MDA-N): > 100 µM (inactive) | GI50 (SW-620): > 100 µM (inactive) | GI50 (KM12): > 100 µM (inactive)

CC1=CCC[C@H]2[C@](C)(CC3=CC(=O)C(Sc4ccccc4)=CC3=O)[C@@H](C)CC[C@]12C
GI50 (A549): 17.5 µM (inactive) | GI50 (OVCAR-5): 17.1 µM (inactive) | GI50 (EKVX): 20.2 µM (inactive) | GI50 (MDA-MB-231): 21.4 µM (inactive) | GI50 (NCI/ADR-RES): 17.1 µM (inactive) | GI50 (BT-549): 19.5 µM (inactive) | GI50 (M14): 16.7 µM (inactive) | GI50 (UACC-257): 15.9 µM (inactive) | GI50 (SF-295): 17.3 µM (inactive) | GI50 (SN12C): 17.7 µM (inactive) | GI50 (A498): 19.9 µM (inactive) | GI50 (PC-3): 23 µM (inactive) | GI50 (OVCAR-3): 16.6 µM (inactive) | GI50 (786-0): 18.2 µM (inactive) | GI50 (UACC-62): 21.7 µM (inactive) | GI50 (HCT-116): 16.6 µM (inactive) | GI50 (U-251): 18.1 µM (inactive) | GI50 (SK-MEL-28): 20.9 µM (inactive) | GI50 (SK-MEL-5): 17.2 µM (inactive) | GI50 (OVCAR-4): 19.7 µM (inactive) | GI50 (SR): 21.8 µM (inactive) | GI50 (NCI-H226): 14.7 µM (inactive) | GI50 (COLO 205): 14.5 µM (inactive) | GI50 (DU-145): 22.5 µM (inactive) | GI50 (HCT-15): 19.2 µM | GI50 (SNB-75): 20.4 µM (inactive) | GI50 (SF-539): 19.8 µM (inactive) | GI50 (UO-31): 15.7 µM (inactive) | GI50 (ACHN): 19.2 µM (inactive) | GI50 (HCC 2998): 20.4 µM (inactive) | GI50 (HOP-62): 16.9 µM (inactive) | GI50 (OVCAR-8): 13.6 µM (inactive) | GI50 (CAKI-1): 17.1 µM (inactive) | GI50 (NCI-H460): 20 µM (inactive) | GI50 (SNB-19): 20.5 µM (inactive) | GI50 (MDA-N): 18.5 µM (inactive) | GI50 (SW-620): 16.9 µM (inactive) | GI50 (KM12): 41.6 µM (inactive)

Cc1ccc(-c2c(C#N)c(-c3ccccc3)c(C#N)c(=O)n2NS(=O)(=O)c2ccc(C)cc2)cc1
GI50 (A549): 34.4 µM (inactive) | GI50 (LOX IMVI): 19.8 µM (inactive) | GI50 (OVCAR-5): > 100 µM (inactive) | GI50 (EKVX): 72.1 µM (inactive) | GI50 (MDA-MB-231): > 100 µM (inactive) | GI50 (NCI/ADR-RES): > 100 µM (inactive) | GI50 (BT-549): 70.1 µM (inactive) | GI50 (RXF 393): 62.2 µM (inactive) | GI50 (SK-MEL-2): 35.7 µM (inactive) | GI50 (HT-29): 50.6 µM (inactive) | GI50 (M14): 31 µM (inactive) | GI50 (UACC-257): 56.1 µM (inactive) | GI50 (SF-295): 24 µM (inactive) | GI50 (SN12C): 61.2 µM (inactive) | GI50 (A498): 27.4 µM (inactive) | GI50 (Hs-578T): > 100 µM (inactive) | GI50 (RPMI-8226): 2.75 µM (inactive) | GI50 (PC-3): 35 µM (inactive) | GI50 (SK-OV-3): 79.8 µM (inactive) | GI50 (K562): 40.3 µM (inactive) | GI50 (786-0): 44.6 µM (inactive) | GI50 (UACC-62): 23.3 µM (inactive) | GI50 (HCT-116): 22.9 µM (inactive) | GI50 (U-251): 45.2 µM (inactive) | GI50 (IGROV-1): 48.1 µM (inactive) | GI50 (MDA-MB-435): 48.9 µM (inactive) | GI50 (SK-MEL-28): 52.2 µM (inactive) | GI50 (MOLT-4): 12.9 µM (inactive) | GI50 (SK-MEL-5): 12.6 µM (inactive) | GI50 (OVCAR-4): 45.7 µM (inactive) | GI50 (NCI-H226): 83.9 µM (inactive) | GI50 (COLO 205): 95.9 µM (inactive) | GI50 (HOP-92): 20.8 µM (inactive) | GI50 (NCI-H522): 56.9 µM (inactive) | GI50 (CCRF-CEM): 19.6 µM (inactive) | GI50 (HCT-15): 22.2 µM | GI50 (SNB-75): > 100 µM (inactive) | GI50 (SF-539): 13.3 µM (inactive) | GI50 (SF-268): > 100 µM (inactive) | GI50 (ACHN): 33.3 µM (inactive) | GI50 (HCC 2998): 19.9 µM (inactive) | GI50 (TK-10): 40.7 µM (inactive) | GI50 (HOP-62): 50.4 µM (inactive) | GI50 (OVCAR-8): 52.7 µM (inactive) | GI50 (CAKI-1): 48.4 µM (inactive) | GI50 (NCI-H460): 15.7 µM (inactive) | GI50 (MCF7): 35.4 µM (inactive) | GI50 (Malme-3M): > 100 µM (inactive) | GI50 (SNB-19): 5.56 µM (inactive) | GI50 (SW-620): 14.8 µM (inactive) | GI50 (KM12): 38.5 µM (inactive)
